“And” between values parts separate entries of the source, which are not always exact repeats. Equal entries are not always repeated.
Tests used:
[1] = target: T1, DnaGC (C-terminal helicase-binding domain of DnaG primase) (Escherichia coli, UniProt P0ABS5); assay: 15N–1H HSQC NMR titration (binding affinity); settings: 15N–1H HSQC titration, change in chemical shift with incremental additions of ligand; roughly estimated
T1 construct: made in house
Protocol: The final volume of each sample was 150 μL. The recording time was 30 min for each ^15N–^1H HSQC experiment. A standard pulse sequence was used for data acquisition. Spectra were recorded at 298 K with a Bruker Avance 600 MHz NMR spectrometer equipped with cryoprobe and auto-sample changer. […] The spectra were processed with TOPSPIN 3.1 and analyzed using CCPN [43]. Weighted CSP values were calculated as
Binding affinities were estimated by incremental titration of fragments into protein, with recording of a ^15N–^1H HSQC experiment at each concentration point. Compound solubilities were tested to determine the highest concentrations of ligands used in assays. Equilibrium dissociation constants from NMR titration data were derived using the “single site-specific binding with ligand depletion” model in GraphPad Prism v.6.0 (La Jolla, CA, USA).

[2] = target: T2, DnaGC (Escherichia coli, UniProt P0ABS5); assay: 1D 19F-NMR binding; settings: compound 1 mM, 50 μM DnaGC (20-fold excess)
T2 construct: made in house
Excerpt: The observed NMR peak shifts were consistent with the docked orientation. The negatively charged tetrazole is predicted to form favorable electrostatic and hydrogen bond interactions with the side chains of K447 and R452. The methyl groups of L446, M451, L455, L484 T515 and L519 form a hydrophobic pocket accommodating two aromatic rings of the compound. One of the fluorine atoms is about 3 Å from the amide group of G481 while the second at the para-position of the phenoxy group points out of the pocket toward K518. In the docked conformation, these fluorine atoms are involved in hydrogen bond formation with these two residues (Figure 4). To test the docked orientation of 5, 1D ^19F-NMR was carried out using a 20-fold excess of compound over protein.
(§1) 1D ^19F-NMR spectra were recorded on a Bruker Avance III 400 MHz NMR spectrometer (Bruker, Karlsruhe, Germany) equipped with the two-channel BBO probe with z-gradient at 300 K. All ^19F-NMR spectra were recorded with 256 scans for fragment and complex samples sequentially. Fragments dissolved in ^2H6-DMSO were diluted in HSQC buffer to give final fragment and protein concentrations of 1 mM and 50 μM, respectively.

[3] = target: E. coli χ (Escherichia coli, UniProt P28905); assay: 1D 19F-NMR binding; settings: in the presence of E. coli χ
Protocol: The fragments identified here and the first generation of optimized leads for DnaGC were tested against other SSB-Ct binding partners including E. coli PriA, E. coli RNAse HI, and the χ subunit of E. coli and Acinetobacter baumannii DNA polymerase III. STD-NMR was used to assess binding.
as §1

T1 sequence (P0ABS5 434-581): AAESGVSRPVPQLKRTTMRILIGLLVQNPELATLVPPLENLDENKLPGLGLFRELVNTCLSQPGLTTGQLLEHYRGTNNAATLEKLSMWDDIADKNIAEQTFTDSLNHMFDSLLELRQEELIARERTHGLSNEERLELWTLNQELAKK
Chain of E. coli χ (P28905 whole entry, the tested form may be a part): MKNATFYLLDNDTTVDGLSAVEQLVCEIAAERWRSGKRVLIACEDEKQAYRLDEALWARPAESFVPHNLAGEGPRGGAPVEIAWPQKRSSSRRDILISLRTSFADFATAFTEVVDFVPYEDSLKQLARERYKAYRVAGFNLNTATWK
T2 sequence (P0ABS5 434-581): as the sequence (P0ABS5 434-581) above

SMILES | Kd [1] | binding by 1D 19F-NMR [2] | binding by 1D 19F-NMR [3]
Fc1ccc(Oc2cccc(F)c2-c2nnn[nH]2)cc1 [Compound 5, 5-[2-fluoro-6-(4-fluorphenoxy)phenyl]tetrazol-1-ide] | 1300 µM and ~1300 µM | confirming binding | 
c1ccc(Oc2cccc(-c3nn[nH]n3)c2)cc1 [Compound 6] | 1200 µM and ~1200 µM |  | 
O=C(O)CN1C(=O)c2cccc3cccc1c23 [Fragment 1] | ~1100 µM |  | 
O=C(O)CSc1c[nH]c2ccccc12 [Fragment 2] | ~3100 µM |  | 
O=C(O)CCSc1ccccc1 [Fragment 3] | ~2800 µM |  | 
Fc1ccc(-c2nnn[nH]2)cc1 [Fragment 4] | ~3200 µM |  | demonstrated binding
